The CombiSolv-Exp solvation set (Vermeire and Green 2021)

Test: solvent given as SMILES

CCCOCCOC(=O)c1ccccc1C(=O)OCCOCCC
Conditions	solvation free energy, 298 K [kcal/mol]
in O	-13.2

CCOC(C)OCC
Conditions	solvation free energy, 298 K [kcal/mol]
in ClCCCl	-5.27
in O	-3.28

CCC(C)C(=O)OC1CC(C)C=C2C=CC(C)C(CCC3CC(O)CC(=O)O3)C21 (stereo not drawn)
Conditions	solvation free energy, 298 K [kcal/mol]
in CC(=O)OC(C)C	-24.9
in CC(=O)OCC(C)C	-24.8
in CC(C)=O	-25.7
in CCC(C)=O	-25.6
in CCC(C)OC(C)=O	-24.9
in CCCCCCCCO	-24.6
in CCCCCCO	-24.8
in CCCCCO	-24.9
in CCCCO	-25.2
in CCCCOC(C)=O	-24.9
in CCCO	-25.2
in CCCOC(C)=O	-25.1
in CCO	-25.1
in CCOC(C)=O	-25.1
in CO	-25.2
in COC(C)=O	-25.1

CCOC(=O)c1ccccc1O
Conditions	solvation free energy, 298 K [kcal/mol]
in O	-3.82

CS(C)(=O)=O
Conditions	solvation free energy, 298 K [kcal/mol]
in O	-10.1

Nc1cnn(-c2ccccc2)c(=O)c1Cl
Conditions	solvation free energy, 298 K [kcal/mol]
in O	-16.4

CC(F)(Cl)Cl
Conditions	solvation free energy, 298 K [kcal/mol]
in CCCCCCCC(=O)OCC(COC(=O)CCCCCCC)OC(=O)CCCCCCC	-2.89

C=CC(C)CC (stereo not drawn)
Conditions	solvation free energy, 298 K [kcal/mol]
in CC#N	-2.7

CC(C)CN(CC(C)C)N=O
Conditions	solvation free energy, 298 K [kcal/mol]
in CC(C)CC(C)(C)C	-7.35
in O	-4.84

Clc1ccc(-c2ccccc2)cc1
Conditions	solvation free energy, 298 K [kcal/mol]
in CCCCCCCCC=CCCCCCCCC(=O)OCC(COC(=O)CCCCCCCC=CCCCCCCCC)OC(=O)CCCCCCCC=CCCCCCCCC	-9.7
in CCCCCCCCO	-9.25
in O	-2.44

Oc1ccc(F)cc1
Conditions	solvation free energy, 298 K [kcal/mol]
in O	-6.19

O=[N+]([O-])c1c(Cl)c(Cl)cc(Cl)c1Cl
Conditions	solvation free energy, 298 K [kcal/mol]
in CCCCCCCCC=CCCCCCCCC(=O)OCC(COC(=O)CCCCCCCC=CCCCCCCCC)OC(=O)CCCCCCCC=CCCCCCCCC	-10.8
in O	-3.77

CC(C)CCC(C)C
Conditions	solvation free energy, 298 K [kcal/mol]
in Brc1ccccc1	-4.53
in C1CCCCC1	-5.02
in C1CCOC1	-4.85
in C1COCCO1	-4.04
in C=CCCCC	-4.95
in C=CCCCCCC	-4.85
in C=CCCCCCCCC	-4.75
in CC1COC(=O)O1	-2.64
in CC#N	-3.31
in CC(=O)N(C)C	-3.54
in CC(=O)O	-3.59
in CC(=O)c1ccccc1	-3.84
in CC(C)=O	-4.03
in CC(C)CC(C)(C)C	-4.84
in CC(C)CCCC(C)CCCC(C)CCCCC(C)CCCC(C)CCCC(C)C	-4.35
in CC(C)CCO	-4.21
in CC(C)O	-3.99
in CC(C)OC(C)C	-4.85
in CCBr	-4.97
in CCC#N	-3.76
in CCC(C)=O	-4.29
in CCCC#N	-4
in CCCC(=O)OCC	-4.52
in CCCC(C)=O	-4.38
in CCCCC	-5.01
in CCCCCC	-4.97
in CCCCCC(C)=O	-4.4
in CCCCCCC	-4.9
in CCCCCCCC	-4.83
in CCCCCCCCC	-4.79
in CCCCCCCCCC	-4.74
in CCCCCCCCCCCC	-4.63
in CCCCCCCCCCCCCCCC	-4.53
in CCCCCCCCO	-4.21
in CCCCCCOC(C)=O	-4.48
in CCCCO	-4.1
in CCCCOC(C)=O	-4.46
in CCCCOCCCC	-4.81
in CCCO	-4.07
in CCN(CC)CC	-4.89
in CCO	-3.92
in CCOC(C)=O	-4.31
in CCOCC	-4.91
in CCOCCOCCOCC	-4.23
in CCOc1ccccc1	-4.31
in CN1CCCC1=O	-3.42
in CN(C)C=O	-3.35
in CN(C)P(=O)(N(C)C)N(C)C	-3.84
in CNC=O	-2.97
in CO	-3.55
in COC(C)=O	-4.11
in COCCO	-3.43
in COc1ccccc1	-4.22
in CS(C)=O	-2.41
in Cc1ccc(C)cc1	-4.77
in Cc1ccccc1	-4.76
in Cc1ccccn1	-4.33
in ClC(Cl)(Cl)Cl	-5.01
in ClC(Cl)Cl	-4.88
in ClCCCl	-4.29
in ClCCl	-4.64
in Clc1ccccc1	-4.75
in FC(F)(F)C(F)(F)C(F)(F)C(F)(F)C(F)(F)C(F)(F)C(F)(F)C(F)(F)F	-3.22
in FC(F)(F)C(F)(F)C(F)(F)C(F)(F)C(F)(F)C(F)(F)F	-3.3
in Fc1ccccc1	-4.66
in ICI	-2.71
in N#Cc1ccccc1	-3.85
in Nc1ccccc1	-3.11
in O	2.78
in O=C1CCCCC1	-4.2
in O=C1CCCO1	-2.85
in OCc1ccccc1	-3.33
in S=C=S	-4.94
in c1ccccc1	-4.76
in c1ccncc1	-4.06

Oc1ccccc1F
Conditions	solvation free energy, 298 K [kcal/mol]
in CC(C)CC(C)(C)C	-4.58
in CCCCCC	-4.69
in CCCCCCC	-4.7
in CCCCCCCC	-4.52
in CCCCCCCCCC	-4.58
in Cc1ccc(C)cc1	-5.86
in Cc1cccc(C)c1	-5.89
in Cc1ccccc1C	-5.96
in O	-5.29

CCCCCOC(=O)CC
Conditions	solvation free energy, 298 K [kcal/mol]
in O	-2.11

CC(=O)CCCCC(C)C
Conditions	solvation free energy, 298 K [kcal/mol]
in NC=O	-5.09
in O	-2.84

O=c1[nH]cc(C(F)(F)F)c(=O)[nH]1
Conditions	solvation free energy, 298 K [kcal/mol]
in O	-15.5

CCNc1nc(Cl)nc(NCC)n1
Conditions	solvation free energy, 298 K [kcal/mol]
in O	-10.1

Nc1ccc(S(=O)(=O)Nc2nccs2)cc1
Conditions	solvation free energy, 298 K [kcal/mol]
in O	-18.2

CCCSC(=O)N(CCC)CCC
Conditions	solvation free energy, 298 K [kcal/mol]
in O	-4.13

ClCC(Cl)Cl
Conditions	solvation free energy, 298 K [kcal/mol]
in CCCCCCCCO	-4.63
in ClC(Cl)(Cl)Cl	-5.06
in ClC(Cl)Cl	-5.28
in ClCCCl	-5.47
in O	-1.99

CBr
Conditions	solvation free energy, 298 K [kcal/mol]
in O	-0.82

Nc1ccc(C(=O)O)cc1
Conditions	solvation free energy, 298 K [kcal/mol]
in C1COCCO1	-14.6
in CC(C)CCO	-13.7
in CC(C)CO	-13.8
in CC(C)O	-14.2
in CCC(C)O	-14
in CCCC(C)O	-13.9
in CCCCCCCCCCO	-13.3
in CCCCCCCCO	-13.5
in CCCCCCCO	-13.7
in CCCCCCO	-13.8
in CCCCCO	-13.9
in CCCCO	-14.1
in CCCO	-14.3
in CCO	-14.6
in CCOCC	-13.6

CC(C)(C)c1ccc(O)cc1
Conditions	solvation free energy, 298 K [kcal/mol]
in CCCCCC	-7.63
in O	-5.91

CC(C)C(=O)CC(=O)C(C)C
Conditions	solvation free energy, 298 K [kcal/mol]
in O	-4.08

CC(=O)c1cccnc1
Conditions	solvation free energy, 298 K [kcal/mol]
in O	-8.26

CCCCC
Conditions	solvation free energy, 298 K [kcal/mol]
in BrC(Br)C(Br)Br	-2.06
in Brc1ccccc1	-2.95
in C1=Cc2ccccc2C1	-2.75
in C1CCCCC1	-3.34
in C1CCOC1	-3.22
in C1COCCO1	-2.6
in C=CCCCC	-3.34
in C=CCCCCCC	-3.24
in C=CCCCCCCCC	-3.16
in C=CCCCCCCCCCCCCCC	-2.88
in CC1COC(=O)O1	-1.59
in CC#N	-2.15
in CC(=O)CC(C)C	-2.86
in CC(=O)N(C)C	-2.29
in CC(=O)O	-2.36
in CC(=O)c1ccccc1	-2.43
in CC(C)=O	-2.73
in CC(C)CC(C)(C)C	-3.24
in CC(C)CCCC(C)CCCC(C)CCCCC(C)CCCC(C)CCCC(C)C	-2.8
in CC(C)CCO	-2.82
in CC(C)O	-2.6
in CC(C)OC(C)C	-3.35
in CCBr	-3.45
in CCC#N	-2.59
in CCC(C)=O	-2.82
in CCC(C)O	-2.65
in CCCC#N	-2.48
in CCCC(=O)OCC	-3
in CCCC(C)=O	-2.89
in CCCCC(CC)COC(=O)CCCCC(=O)OCC(CC)CCCC	-2.65
in CCCCC(CC)COC(=O)c1ccccc1C(=O)OCC(CC)CCCC	-2.47
in CCCCCC	-3.36
in CCCCCC(C)=O	-2.92
in CCCCCCC	-3.27
in CCCCCCCC	-3.24
in CCCCCCCCC	-3.18
in CCCCCCCCC=CCCCCCCCC(=O)OCC(COC(=O)CCCCCCCC=CCCCCCCCC)OC(=O)CCCCCCCC=CCCCCCCCC	-2.77
in CCCCCCCCCC	-3.16
in CCCCCCCCCCCC	-3.05
in CCCCCCCCCCCCCC	-2.9
in CCCCCCCCCCCCCCCC	-2.93
in CCCCCCCCCOC(=O)c1ccccc1C(=O)OCCCCCCCCC	-2.55
in CCCCCCCCN(CCCCCCCC)CCCCCCCC	-2.81
in CCCCCCCCO	-2.7
in CCCCCCCO	-2.66
in CCCCCCO	-2.68
in CCCCCCOC(C)=O	-2.96
in CCCCCN(CCCCC)CCCCC	-2.98
in CCCCCO	-2.65
in CCCCCl	-3.22
in CCCCN(C=O)CCCC	-2.59
in CCCCN(CCCC)CCCC	-2.9
in CCCCO	-2.7
in CCCCOC(=O)c1ccccc1C(=O)OCCCC	-2.59
in CCCCOC(C)=O	-2.94
in CCCCOCCCC	-3.19
in CCCO	-2.58
in CCN1CCCC1=O	-2.25
in CCN(CC)C(C)=O	-2.48
in CCN(CC)CC	-3.31
in CCNC(C)=O	-2.35
in CCNC=O	-2.11
in CCO	-2.51
in CCOC(=O)c1ccccc1C(=O)OCC	-2.11
in CCOC(C)=O	-2.85
in CCOCC	-3.3
in CCOCCOCCOCC	-2.79
in CCOc1ccccc1	-2.82
in CN1CCCC1=O	-2.18
in CN1CCCCC1=O	-2.16
in CN1CCN(C)C1=O	-1.88
in CN(C)C=O	-2.18
in CN(C)P(=O)(N(C)C)N(C)C	-2.39
in CNC(C)=O	-2.17
in CNC=O	-1.87
in CO	-2.29
in COC(C)=O	-2.66
in COCCO	-2.16
in COCCOCCOCCOCCOC	-2.2
in COc1ccccc1	-2.76
in CS(C)=O	-1.41
in Cc1ccc(C)cc1	-3.16
in Cc1cccc2ccccc12	-2.63
in Cc1cccc(C)c1	-3.11
in Cc1cccc(O)c1	-2.28
in Cc1ccccc1	-3.15
in Cc1ccccn1	-2.82
in ClC(Cl)(Cl)Cl	-3.32
in ClC(Cl)C(Cl)Cl	-2.77
in ClC(Cl)Cl	-3.23
in ClCCCl	-2.77
in ClCCl	-3.07
in Clc1cccc2ccccc12	-2.5
in Clc1ccccc1	-3.14
in FC(F)(F)C(F)(F)C(F)(F)C(F)(F)C(F)(F)C(F)(F)C(F)(F)C(F)(F)F	-2.06
in FC(F)(F)C(F)(F)C(F)(F)C(F)(F)C(F)(F)C(F)(F)F	-2.15
in Fc1ccccc1	-3.25
in ICI	-1.67
in Ic1ccccc1	-2.61
in N#CCCCCC#N	-1.32
in N#CCc1ccccc1	-1.99
in N#Cc1ccccc1	-2.48
in NC=O	-0.44
in NCCO	-0.27
in Nc1ccccc1	-1.89
in O=C1CCCCC1	-2.73
in O=C1CCCO1	-1.72
in O=C(O)C(Cl)Cl	-2.12
in O=CN1CCOCC1	-1.51
in O=Cc1ccco1	-1.8
in OC1CCCCC1	-2.46
in OCCO	-0.34
in OCCOCCO	-0.86
in OCCc1ccccc1	-2.12
in OCc1ccccc1	-2.06
in OCc1ccco1	-1.67
in S=C=S	-3.29
in c1ccc2ncccc2c1	-2.54
in c1ccccc1	-3.15
in c1ccncc1	-2.64
